Results on one molecule are retold here after US10085933B2, “Cosmetic use of an essential oil of Laserpitium siler L. for keratin materials” (L'OREAL, priority 2013, dated 2018).

For this experiment, the system named is dermal capillaries of normal human skin maintained alive. Put plainly: Vascular modulation (vasodilation/vasoconstriction) in a model of normal human skin maintained alive; histological morphometry of dermal capillaries. Particulars: 1 μM noradrenalin in culture medium, 48 hours organ culture; for percentage of dilated vessels (dilated capillaries): mean of six skin samples, control skin 74.8 ± 20.8; for mean area occupied by the lumen of the blood vessels (capillaries) in the dermis: control skin 153.6 ± 74.4. The format is cell-based. The text has this: The object of this study is to analyse the effect on vascular modulation, namely vasodilation or vasoconstriction, of the essential oil of Laserpitium siler L. evaluated in a model of normal human skin maintained alive.
The analyses are histological by morphometric quantification of the calibre of the dermal capillaries and semi-quantitative evaluation of the oedema.
Fragments of normal human skin are obtained from a plastic surgery. They are placed in inserts, which are themselves positioned on culture wells. Culture medium specifically adapted to survival maintenance is added to the bottom of the wells, a passage being made by slow diffusion between the two compartments via a porous membrane (3 μm).
The second positive control consisted in adding 1 μM noradrenalin to the culture medium so as to obtain vasoconstriction of the dermal capillaries.
The essential oil of Laserpitium siler L. at the test concentrations dissolved in ethanol is added to the culture medium.
The skin fragments are then maintained in organ culture for 48 hours in an oven under a humid atmosphere, at 37° C. and in the presence of 5% CO2.
The skin fragments are fixed in Bouin liquid and included in paraffin. After staining with haemalum-eosin, two criteria are evaluated on the dermis: the oedema and the calibre of the capillaries.
After staining with haemalum-eosin, the vascular dilation is evaluated by counting the number of dilated blood vessels on the entire histological slice (16 fields at magnification 40). This number is carried over to the total number of blood vessels in order to calculate the percentage of dilated vessels.
Moreover, a morphometric analysis of the area (μm^2) occupied by the lumen of the blood vessels was performed in order to determine the mean area (μm^2) occupied in the dermis by the vessels.
A mean is calculated for each parameter from the results obtained on the six skin samples. The statistical analysis was performed via the “reduced deviation” Student test or paired-samples test, with a risk a of 5%.

Take `NC[C@H](O)c1ccc(O)c(O)c1` [noradrenalin]: the “percentage of dilated vessels (dilated capillaries)” value stood at 52.5 ± 20.6% and the “mean area occupied by the lumen of the blood vessels (capillaries) in the dermis” value worked out at 93.7 ± 65.7 μm^2. Moreover, for the setting “listed as Noradrenalin”, the “percentage of dilated vessels (dilated capillaries)” value is 52.5% and the “mean area occupied by the lumen of the blood vessels (capillaries) in the dermis” value amounted to 93.7 μm^2.
